Key:
[1] = biological target: T1, Canine cardiac sarcolemmal vesicle Na+/Ca2+ exchanger (Canis lupus familiaris, UniProt P23685); assay: Canine cardiac sarcolemmal vesicle Na+/Ca2+ exchanger (Na-dependent 45Ca uptake); type: biochemical; conditions: canine cardiac sarcolemmal vesicles; read-out: Inhibitory activity against Na+/Ca2+ exchange (Na-dependent 45Ca uptake), IC50 value, Cardiac sarcolemma
T1 construct: Canine cardiac sarcolemmal vesicles (0.5 mg/ml) were prepared by centrifugal fractionation; from tissue; host or cells: canine cardiac sarcolemmal vesicles
Procedure: Method of Measuring for Canine Cardiac Sarcolemmal Vesicle Na^+/Ca^2+ Exchanger
Canine cardiac sarcolemmal vesicles (0.5 mg/ml) were prepared by centrifugal fractionation as described in Methods enzymology, vol. 157, p. 85 (1988) and suspended in Solution A (20 mM MOPS-Tris (pH 7.4), 160 mM NaCl or KCl), followed by incubation at room temperature for about one hour to cause Na or K loading into the vesicles. This suspension was diluted 50-fold with 20 μM ^45CaCl2-containing buffer to induce ^45Ca uptake, followed by dilution with the buffer (0° C.) to stop the reaction. The membrane vesicles were immediately collected on a nitrocellulose filter. Subsequently, ^45Ca trapped inside the membrane vesicles was determined by liquid scintillation counting. The Na^+/Ca^2+ exchange activity was evaluated by subtracting the value obtained for K loading from the value obtained for Na loading. The above assay for Na^+/Ca^2+ exchange activity in canine cardiac sarcolemmal vesicles was performed according to the procedures described in J. Biol. Chem., vol. 257, p. 5111 (1982).

[2] = biological target: renal cortex-derived Na+/Ca2+ exchanger (NCX1) (Rattus norvegicus, UniProt Q01728); assay: Rat renal cortex-derived BLMVs Na+/Ca2+ exchange activity (Na-dependent 45Ca uptake); type: biochemical; conditions: read-out: Inhibitory activity against Na+/Ca2+ exchange (Na-dependent 45Ca uptake), IC50 value, Renal cortex
Procedure: BLMVs were prepared from rat renal cortex and assayed for Na^+/Ca^2+ exchange activity according to the procedures described in Am. J. Physiol., vol. 266, p. F785 (1994). After being excised from rats, the kidneys were placed in ice-cold sucrose buffer ([…], 0.1 mM PMSF, 10 mM Tris-HCl (pH 7.6)) and decapsulated. The isolated cortex was then finely minced in the sucrose buffer and homogenized sequentially with a Dounce-type homogenizer and a Polytron-type homogenizer, followed by centrifugation at 2500 g for 15 minutes to collect the supernatant. Centrifugation was repeated at 24000 g for 20 minutes to collect the white fluffy portion of the pellet. After further addition of the sucrose buffer, the collected fraction was homogenized with a Dounce-type homogenizer, supplemented with Percoll and then centrifuged at 30000 g for 35 minutes to collect the middle layer. After addition of buffer (100 mM KCl, 100 mM mannitol, 5 mM HEPES-Tris (pH 7.4)), centrifugation was carried out at 34000 g for 30 minutes to collect the loose white pellet (BLMVs). […] Subsequently, the filter was washed twice with 2 ml stop solution and then the amount of ^45Ca trapped inside the BLMVs was determined by using liquid scintillation method.

[3] = system: Brain microsomal Na+/Ca2+ exchanger; assay: Brain microsomal Na+/Ca2+ exchanger (Na-dependent 45Ca uptake); type: biochemical; conditions: rat brain microsomes; read-out: Inhibitory activity against Na+/Ca2+ exchange (Na-dependent 45Ca uptake), IC50 value, Brain
Procedure: Method of Measuring for Brain Microsomal Na^+/Ca^2+ Exchanger
Brain microsomes (1.5 mg/ml) obtained from 8-week-old rats were pre-treated with 160 mM NaCl-containing buffer to cause Na loading into membrane vesicles. This suspension was diluted 50-fold with 20 μM ^45CaCl2-containing buffer to induce ^45Ca uptake, followed by dilution with the buffer (0° C.) to stop the reaction. The membrane vesicles were immediately collected on a nitrocellulose filter. Subsequently, ^45Ca trapped inside the membrane vesicles was determined by liquid scintillation counting. The above assay for Na^+/Ca^2+ exchange activity in brain microsomes was performed according to the procedures described in J. Biol. Chem., vol. 257, p. 5111 (1982).

[4] = system: Dahl salt-sensitive hypertension rats; assay: Dahl salt-sensitive hypertension rat model, systolic blood pressure; type: in vivo; conditions: for % change in blood pressure: one hour after administration, systolic
Text: (Creation of Dahl Salt-sensitive Hypertension Rat Model)
Dahl salt-sensitive hypertension rats (7 weeks old) were used in the experiment. They were fed a 4% NaCl high-salt chow (0.6% for normal chow), but were allowed to drink water without any restriction. At two weeks after high-salt loading, the animals confirmed to develop hypertension were divided into the following 4 groups for use in the experiment.
(Experimental Animal Groups)
After loading the high-salt chow for two weeks as described above, an acute experiment was performed. On the day of the experiment, the systolic blood pressure (before administration) was measured for each animal under non-anesthesia conditions using a noninvasive sphygmomanometer. The animals were then administered orally with the solvent or SEA0400(3, 10, or 30 mg/kg) and monitored over time for their systolic blood pressure.

IC50 [1] [µM]	IC50 [2] [µM]	IC50 [3] [µM]	Compound	% change in blood pressure ([4]; 3 mg/kg oral) [%]	Reduction in blood pressure compared with the solvent group ([4]; 10 mg/kg and 30 mg/kg groups, oral)	% change in blood pressure ([4]; 10 mg/kg oral) [%]	% change in blood pressure ([4]; 30 mg/kg oral) [%]
7	6.8	11	N=C(N)SCCc1ccc(OCc2ccc([N+](=O)[O-])cc2)cc1 [K-BR7943, 2-[2-[4-[nitrobenzyloxy]phenyl]ethyl]isothio-ureamethanesulfonate]				
		0.2	CCOc1ccc(Oc2ccc(OCc3cc(F)ccc3F)cc2)c(N)c1 [SEA0400, 2-[4-[(2,5-difluorophenyl)methoxy]phenoxy]-5-ethoxyaniline]	−9.5±1.8	significant reduction in blood pressure	−12.0±0.9	−12.7±3.4
